Results as given in ChEMBL document CHEMBL1156251, “Structure--activity relationships of polymyxin antibiotics” (J Med Chem, 2010).
Values after ≈ are worked out from the molar mass of the structure shown. Where a SMILES comes first, the peptide text is derived from it. Bridges are numbered along the chain shown (N, C = ends). [ ]: non-standard residue; d: D form. The star is where a group is joined. Heptanoyl(6-Me) = CC(C)CCCCC(=O)*; Octanoyl(6-Me) = CCC(C)CCCCC(=O)*; Dab = NCC[C@H](N)C(=O)O; Ava = NCCCCC(=O)O

What was measured:
[1] = tested on: Escherichia coli; test: Antimicrobial activity against Escherichia coli; type: functional
[2] = tested on: Salmonella enterica; test: Antimicrobial activity against Salmonella enterica; type: functional
[3] = tested on: Pseudomonas aeruginosa; test: Antimicrobial activity against Pseudomonas aeruginosa; type: functional, organism-based

Row | Compound | MIC [1] | IC50 [3] [mg/L] | other results
1 | CCC(C)CCCCC(=O)N[C@@H](CCN)C(=O)N[C@H](C(=O)N[C@@H](CO)C(=O)N[C@H]1CCNC(=O)[C@H]([C@@H](C)O)NC(=O)[C@H](CCN)NC(=O)[C@H](CCN)NC(=O)[C@H](CC(C)C)NC(=O)[C@@H](CC(C)C)NC(=O)[C@H](CCN)NC1=O)[C@@H](C)O (some centres not stated) | 0.8 mg/L |  | 
2 | CC(C)C[C@@H]1NC(=O)[C@@H](Cc2ccccc2)NC(=O)[C@H](CCN)NC(=O)[C@@H](NC(=O)[C@H](CCN)NC(=O)[C@@H](NC(=O)[C@H](CCN)NC(=O)CCCc2cc3ccc4cccc5ccc(c2)c3c45)[C@@H](C)O)CCNC(=O)[C@H]([C@@H](C)O)NC(=O)[C@H](CCN)NC(=O)[C@H](CCN)NC1=O | 2 µM |  | MIC [2]: 2 µM (≈ 2.67 µg/mL); MIC [3]: 2 µM (≈ 2.67 µg/mL)
3 | CCCCC(=O)N[C@@H](CCN)C(=O)N[C@@H](C(=O)N[C@@H](CCN)C(=O)N[C@H]1CCNC(=O)[C@@H]([C@@H](C)O)NC(=O)[C@H](CCN)NC(=O)[C@H](CCN)NC(=O)[C@H](CC(C)C)NC(=O)[C@@H](Cc2ccccc2)NC(=O)[C@H](CCN)NC1=O)[C@@H](C)O | 11 mg/L |  | 
4 | CCC(C)CCCCC(=O)N[C@@H](CCCCN)C(=O)N[C@H](C(=O)N[C@@H](CCCCN)C(=O)N[C@H]1CCNC(=O)[C@H]([C@@H](C)O)NC(=O)[C@H](CCCCN)NC(=O)[C@H](CCCCN)NC(=O)[C@H](CC(C)C)NC(=O)[C@@H](Cc2ccccc2)NC(=O)[C@H](CCCCN)NC1=O)[C@@H](C)O (some centres not stated) | 0.2 mg/L |  | 
5 | CCC(C)CCCCC(=O)N[C@@H](CCNC=O)C(=O)N[C@H](C(=O)N[C@@H](CCNC=O)C(=O)N[C@H]1CCNC(=O)[C@H]([C@@H](C)O)NC(=O)[C@H](CCN)NC(=O)[C@H](CCN)NC(=O)[C@H](CC(C)C)NC(=O)[C@@H](Cc2ccccc2)NC(=O)[C@H](CCN)NC1=O)[C@@H](C)O (some centres not stated) |  | 4.2 (≈ 3.33 µM) | 
6 | CCC(C)CCCCC(=O)N[C@@H](CCNC=O)C(=O)N[C@H](C(=O)N[C@@H](CCNC=O)C(=O)N[C@H]1CCNC(=O)[C@H]([C@@H](C)O)NC(=O)[C@H](CCN)NC(=O)[C@H](CCNC=O)NC(=O)[C@H](CC(C)C)NC(=O)[C@@H](Cc2ccccc2)NC(=O)[C@H](CCN)NC1=O)[C@@H](C)O (some centres not stated) |  | 6.1 (≈ 4.74 µM) | 
7 | CCC(C)CCCCC(=O)N[C@@H](CCNC=O)C(=O)N[C@H](C(=O)N[C@@H](CCNC=O)C(=O)N[C@H]1CCNC(=O)[C@H]([C@@H](C)O)NC(=O)[C@H](CCNC=O)NC(=O)[C@H](CCNC=O)NC(=O)[C@H](CC(C)C)NC(=O)[C@@H](Cc2ccccc2)NC(=O)[C@H](CCN)NC1=O)[C@@H](C)O (some centres not stated) |  | 42 (≈ 31.9 µM) | 
8 | CCC(C)CCCCC(=O)N[C@@H](CCNC=O)C(=O)N[C@H](C(=O)N[C@@H](CCNC=O)C(=O)N[C@H]1CCNC(=O)[C@H]([C@@H](C)O)NC(=O)[C@H](CCNC=O)NC(=O)[C@H](CCNC=O)NC(=O)[C@H](CC(C)C)NC(=O)[C@@H](Cc2ccccc2)NC(=O)[C@H](CCNC=O)NC1=O)[C@@H](C)O (some centres not stated) |  | 60 (≈ 44.7 µM) | 
9 | CCC(C)CCCCC(=O)N[C@@H](CCNC(N)=O)C(=O)N[C@H](C(=O)N[C@@H](CCNC(N)=O)C(=O)N[C@H]1CCNC(=O)[C@H]([C@@H](C)O)NC(=O)[C@H](CCNC(N)=O)NC(=O)[C@H](CCNC(N)=O)NC(=O)[C@H](CC(C)C)NC(=O)[C@@H](Cc2ccccc2)NC(=O)[C@H](CCN)NC1=O)[C@@H](C)O (some centres not stated) |  | 80 (≈ 58.2 µM) | 
10 | CCCC1CCC(C(=O)N[C@@H](CCN)C(=O)N[C@H](C(=O)N[C@@H](CCN)C(=O)N[C@H]2CCNC(=O)[C@H]([C@@H](C)O)NC(=O)[C@H](CCN)NC(=O)[C@H](CCN)NC(=O)[C@H](CC(C)C)NC(=O)[C@@H](Cc3ccccc3)NC(=O)[C@H](CCN)NC2=O)[C@@H](C)O)CC1 (some centres not stated) | 4 µM |  | MIC [2]: 4 µM (≈ 4.86 µg/mL); MIC [3]: 2 µM (≈ 2.43 µg/mL)
11 | CCCC1CCC(C(=O)N[C@@H](CCN)C(=O)N[C@H](C(=O)N[C@@H](CCN)C(=O)N[C@H]2CCNC(=O)[C@H]([C@@H](C)O)NC(=O)[C@H](CCN)NC(=O)[C@H](CCN)NC(=O)[C@H](CC(C)C)NC(=O)[C@@H](CC(C)C)NC(=O)[C@H](CCN)NC2=O)[C@@H](C)O)CC1 (some centres not stated) | 8 µM |  | MIC [2]: 8 µM (≈ 9.45 µg/mL); MIC [3]: 2 µM (≈ 2.36 µg/mL)
12 | CCCC(=O)N[C@@H](CCN)C(=O)N[C@@H](C(=O)N[C@@H](CCN)C(=O)N[C@H]1CCNC(=O)[C@@H]([C@@H](C)O)NC(=O)[C@H](CCN)NC(=O)[C@H](CCN)NC(=O)[C@H](CC(C)C)NC(=O)[C@@H](Cc2ccccc2)NC(=O)[C@H](CCN)NC1=O)[C@@H](C)O [BUTANOYL FATTY ACYL POLYMYXIN B] | 23 mg/L |  | 
13 | CC(C)CCCCC(=O)N[C@@H](CCN)C(=O)N[C@H](C(=O)N[C@@H](CCN)C(=O)N[C@H]1CCNC(=O)[C@H]([C@@H](C)O)NC(=O)[C@H](CCN)NC(=O)[C@H](CCN)NC(=O)[C@H](CC(C)C)NC(=O)[C@@H](CC(C)C)NC(=O)[C@H](CCN)NC1=O)[C@@H](C)O [COLISTIN B] ({Heptanoyl(6-Me)}-[Dab]T[Dab][Dab][Dab][dL]L[Dab][Dab]T; lactam 4-C) | 1.6 mg/L |  | 
14 | CCCCCC(=O)N[C@@H](CCN)C(=O)N[C@@H](C(=O)N[C@@H](CCN)C(=O)N[C@H]1CCNC(=O)[C@@H]([C@@H](C)O)NC(=O)[C@H](CCN)NC(=O)[C@H](CCN)NC(=O)[C@H](CC(C)C)NC(=O)[C@@H](Cc2ccccc2)NC(=O)[C@H](CCN)NC1=O)[C@@H](C)O [HEXANOYL FATTY ACYL POLYMYXIN B] | 0.7 mg/L |  | 
15 | CCC(C)CCCCC(=O)N[C@@H](CCNCc1c(COP(=O)(O)O)cnc(C)c1O)C(=O)N[C@@H](C(=O)N[C@@H](CCNCc1c(COP(=O)(O)O)cnc(C)c1O)C(=O)N[C@H]1CCNC(=O)[C@@H]([C@@H](C)O)NC(=O)[C@H](CCNCc2c(COP(=O)(O)O)cnc(C)c2O)NC(=O)[C@H](CCNCc2c(COP(=O)(O)O)cnc(C)c2O)NC(=O)[C@H](CC(C)C)NC(=O)[C@@H](Cc2ccccc2)NC(=O)[C@H](CCN)NC1=O)[C@@H](C)O (some centres not stated) [PYRIDOXAL POLYMYXIN B] |  | 10.7 (≈ 5.03 µM) | 
16 | CCC(C)CCCCC(=O)N[C@@H](CCNC(=O)n1ccc2ccccc21)C(=O)N[C@@H](C(=O)N[C@@H](CCNC(=O)n1ccc2ccccc21)C(=O)N[C@H]1CCNC(=O)[C@@H]([C@@H](C)O)NC(=O)[C@H](CCNC(=O)n2ccc3ccccc32)NC(=O)[C@H](CCNC(=O)n2ccc3ccccc32)NC(=O)[C@H](CC(C)C)NC(=O)[C@@H](Cc2ccccc2)NC(=O)[C@H](CCN)NC1=O)[C@@H](C)O (some centres not stated) [TETRA INDOLE ALDEHYDE POLYMYXIN B] |  | 10.2 (≈ 5.74 µM) | 
17 | COLISTIN | 0.8 mg/L |  | 

Second part, led by results:

Row | MIC [1] | IC50 [3] [mg/L] | Compound | other results
18 | 2 µM |  | CC(C)C[C@@H]1NC(=O)[C@@H](CC(C)C)NC(=O)[C@H](CCN)NC(=O)[C@@H](NC(=O)[C@H](CCN)NC(=O)[C@@H](NC(=O)[C@H](CCN)NC(=O)CCCC2CCCCC2)[C@@H](C)O)CCNC(=O)[C@H]([C@@H](C)O)NC(=O)[C@H](CCN)NC(=O)[C@H](CCN)NC1=O | MIC [2]: 1 µM (≈ 1.18 µg/mL); MIC [3]: 1 µM (≈ 1.18 µg/mL)
19 | 2 µM |  | CC(C)C[C@@H]1NC(=O)[C@@H](CC(C)C)NC(=O)[C@H](CCN)NC(=O)[C@@H](NC(=O)[C@H](CCN)NC(=O)[C@@H](NC(=O)[C@H](CCN)NC(=O)CCCc2cc3ccc4cccc5ccc(c2)c3c45)[C@@H](C)O)CCNC(=O)[C@H]([C@@H](C)O)NC(=O)[C@H](CCN)NC(=O)[C@H](CCN)NC1=O | MIC [2]: 2 µM (≈ 2.6 µg/mL); MIC [3]: 1 µM (≈ 1.3 µg/mL)
20 | 0.4 mg/L |  | CCC(C)CCCCC(=O)N[C@@H](CCN)C(=O)N[C@H](C(=O)N[C@@H](CCN)C(=O)N[C@H]1CCNC(=O)[C@H]([C@@H](C)O)NC(=O)[C@H](CCN)NC(=O)[C@H](CCN)NC(=O)[C@H]([C@@H](C)CC)NC(=O)[C@@H](CC(C)C)NC(=O)[C@H](CCN)NC1=O)[C@@H](C)O (some centres not stated) | 
21 |  | 7.6 (≈ 6.17 µM) | CCC(C)CCCCC(=O)N[C@@H](CCNC=O)C(=O)N[C@H](C(=O)N[C@@H](CCN)C(=O)N[C@H]1CCNC(=O)[C@H]([C@@H](C)O)NC(=O)[C@H](CCN)NC(=O)[C@H](CCN)NC(=O)[C@H](CC(C)C)NC(=O)[C@@H](Cc2ccccc2)NC(=O)[C@H](CCN)NC1=O)[C@@H](C)O (some centres not stated) | 
22 | 50 mg/L |  | CCC(C)CCCCCOC(=O)[C@H](CCCCN)NC(=O)C(NC(=O)[C@H](CCCCN)NC(=O)[C@H](CCCCN)NC(=O)[C@@H](NC(=O)[C@H](CCCCN)NC(=O)[C@@H](CCCCN)NC(=O)[C@@H](N)CC(C)C)[C@@H](C)O)[C@@H](C)O (single isomer, unassigned) | 
23 | 100 mg/L |  | CCC(C)CCCCCOC(=O)[C@H](CCCCN)NC(=O)C(NC(=O)[C@H](CCCCN)NC(=O)[C@H](CCCCN)NC(=O)[C@@H](NC(=O)[C@H](CCCCN)NC(=O)[C@@H](CCCCN)NC(=O)[C@H](CC(C)C)NC(=O)[C@@H](CCCCN)NC(=O)[C@@H](N)CC(C)C)[C@@H](C)O)[C@@H](C)O (single isomer, unassigned) | 
24 | 500 mg/L |  | CCC(C)CCCCC(=O)N[C@@H](CCN)C(=O)N[C@H](C(=O)N[C@@H](CCN)C(=O)N[C@H]1CCNC(=O)[C@H]([C@@H](C)O)NC(=O)[C@H](CCN)NC(=O)[C@H](CCN)NC(=O)CCCCNC(=O)[C@H](CCN)NC1=O)[C@@H](C)O (some centres not stated) ({Octanoyl(6-Me)}-[Dab]T[Dab][Dab][Dab][Ava][Dab][Dab]T; lactam 4-C) | 
25 |  | 73 (≈ 39.1 µM) | CCC(C)CCCCC(=O)N[C@@H](CCNc1ccc([N+](=O)[O-])cc1[N+](=O)[O-])C(=O)N[C@@H](C(=O)N[C@@H](CCNc1ccc([N+](=O)[O-])cc1[N+](=O)[O-])C(=O)N[C@H]1CCNC(=O)[C@@H]([C@@H](C)O)NC(=O)[C@H](CCNc2ccc([N+](=O)[O-])cc2[N+](=O)[O-])NC(=O)[C@H](CCNc2ccc([N+](=O)[O-])cc2[N+](=O)[O-])NC(=O)[C@H](CC(C)C)NC(=O)[C@@H](Cc2ccccc2)NC(=O)[C@H](CCN)NC1=O)[C@@H](C)O (some centres not stated) [2,4-DINITROPHENYL POLYMYXIN B] | 
26 |  | 70 (≈ 58.4 µM) | CCC(C)CCCCC(=O)N[C@@H](CC=O)C(=O)N[C@H](C(=O)N[C@@H](CC=O)C(=O)N[C@H]1CCNC(=O)[C@H]([C@@H](C)O)NC(=O)[C@H](CC=O)NC(=O)[C@H](CC=O)NC(=O)[C@H](CC(C)C)NC(=O)[C@@H](Cc2ccccc2)NC(=O)[C@H](CC=O)NC1=O)[C@@H](C)O (some centres not stated) [Desamino Polymyxin B] | 
27 |  | 68 (≈ 35.3 µM) | CCC(C)CCCCC(=O)N[C@@H](CCNc1cc(N)c([N+](=O)[O-])cc1[N+](=O)[O-])C(=O)N[C@@H](C(=O)N[C@@H](CCNc1cc(N)c([N+](=O)[O-])cc1[N+](=O)[O-])C(=O)N[C@H]1CCNC(=O)[C@@H]([C@@H](C)O)NC(=O)[C@H](CCNc2cc(N)c([N+](=O)[O-])cc2[N+](=O)[O-])NC(=O)[C@H](CCNc2cc(N)c([N+](=O)[O-])cc2[N+](=O)[O-])NC(=O)[C@H](CC(C)C)NC(=O)[C@@H](Cc2ccccc2)NC(=O)[C@H](CCN)NC1=O)[C@@H](C)O (some centres not stated) [TETRA 5-AMINO-2,4-DINITROPHENYL POLYMYXIN B] | 
